Common to all, as to type: cell-based
In one test the test system is MOLT-4 cells. The test is described as follows: MOLT-4 cell viability, CTG assay. The settings on record: Homo sapiens, MOLT-4, 48 h. The method in brief:
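Cells grown in RPMI 1640 with 10% FBS at 37° C, 5% CO2, then exposed to compounds for 48 h (11-point 5-fold dilution, triplicates). ATP measured by CellTiter-Glo luminescence; IC50 from four-parameter fit versus control, mean of ≥2 independent experiments.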

The target in a further test is T1, Bcl-xL (Homo sapiens, UniProt Q07817).
T1 construct: Measured levels of Bcl-xL protein of HCT116 cells treated with the tested compounds; host or cells: HCT116
T1 sequence (Q07817 whole entry): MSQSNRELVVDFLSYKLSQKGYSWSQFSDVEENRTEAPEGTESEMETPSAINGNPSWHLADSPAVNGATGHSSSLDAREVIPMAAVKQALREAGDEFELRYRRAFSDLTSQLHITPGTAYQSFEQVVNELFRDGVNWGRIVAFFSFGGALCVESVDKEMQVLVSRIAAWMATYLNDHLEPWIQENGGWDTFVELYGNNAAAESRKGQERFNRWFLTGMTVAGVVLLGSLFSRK
The test is described as follows: HCT116 Bcl-xL degradation, capillary-based immunoassay (WES). The settings on record: HCT116, 24 h, 9-point serial dilution. In a few lines: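 HCT116 cells treated 24 h with compound at 10/100 nM and/or 9-point dilution (quadruplicates), then lysed. Bcl-xL measured by capillary WES immunoassay, normalized to cofilin and expressed as % of untreated cells. DC50 from four-parameter curve fit.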

The subject of test [1] is EBC-1 lung cancer cell line. The test is described as follows: EBC-1 cell proliferation, CellTiter-Glo assay. The following applies: Homo sapiens, 120 h; Ebc-1 cell viability, CTG assay, 5 days of treatment; read-out: CTG 5 day Ebc1 GI50. The method in brief:
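EBC-1 cells seeded at 1000 per well overnight, then exposed to 10-point dilutions (0.508 nM–10 μM final) for 5 days at 37 °C, in triplicate. ATP luminescence by CellTiter-Glo, normalised to untreated wells; GI50 from four-parameter logistic fit, runs valid only with at least one doubling.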
(Cellular ATP, detected with luciferase, serves as a proxy for viable cell number.)

The target of another test is T2, HiBiT-tagged BCL-xL (Homo sapiens, UniProt Q07817).
T2 construct: expressed in transfected cells; host or cells: NCI-H1650 (ATCC No. CRL-5883), engineered HiBiT cell line
T2 sequence (Q07817 whole entry): as above
Kind of test: NCI-H1650 BCL-xL protein levels, Nano-Glo HiBiT Lytic Detection. The following applies: NCI-H1650 expressing HiBiT-tagged BCL-xL, overnight incubation, read-out: Bcl-xl HIBIT NCIH1650 DC50. The method in brief:
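NCI-H1650 cells expressing HiBiT-tagged BCL-xL (5000/well) were treated overnight at 37° C with 10 concentrations, final 0.508 nM-10 μM, in triplicate. Remaining BCL-xL measured by Nano-Glo HiBiT lytic luminescence, normalized to untreated cells; 50% values by four-parameter logistic fit.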
Background: HiBiT is a short tag that completes a luciferase, so light tracks the accessible tagged protein.

IC50, DC50 and GI50 data for four compounds are collected here from patent US20240376094A2, “SELECTIVE BCL-XL PROTAC COMPOUNDS AND METHODS OF USE” (Les Laboratoires Servier, priority 2021, published 2024).

In the test with MOLT-4 cells, `Cc1ncsc1-c1ccc([C@H](C)NC(=O)[C@@H]2C[C@@H](O)CN2C(=O)[C@@H](NC(=O)COCCCCCCCCCCCN(C)CCOC23CC4(C)CC(C)(CC(Cn5ncc(-c6ccc(N7CCCc8c7nnc(Nc7nc9ccccc9s7)c8C)nc6C(=O)O)c5C)(C4)C2)C3)C(C)(C)C)cc1` [Example 110, 6-[3-(1,3-benzothiazol-2-ylamino)-4-methyl-6,7-dihydro-5H-pyrido[2,3-c]pyridazin-8-yl]-3-[1-[[3-[2-[11-[2-[[(1S)-1-[(2S,4R)-4-hydroxy-2-[[(1S)-1-[4-(4-methylthiazol-5-yl)phenyl]ethyl]carbamoyl]pyrrolidine-1-carbonyl]-2,2-dimethyl-propyl]amino]-2-oxo-ethoxy]undecyl-methyl-amino]ethoxy]-5,7-dimethyl-1-adamantyl]methyl]-5-methyl-pyrazol-4-yl]pyridine-2-carboxylic acid] displayed a concentration for half-maximal inhibition (IC50) of 0.0239 µM. Also, the DC50 on Bcl-xL amounted to 0.0114 µM; on HiBiT-tagged BCL-xL, 0.002 µM. Also, the GI50 in test [1] was found to be 0.379 µM.
`Cc1ncsc1-c1ccc([C@H](C)NC(=O)[C@@H]2C[C@@H](O)CN2C(=O)[C@@H](NC(=O)CCOCCOCCOCCOCCN(C)CCOC23CC4(C)CC(C)(CC(Cn5ncc(-c6ccc(N7CCCc8c7nnc(Nc7nc9ccccc9s7)c8C)nc6C(=O)O)c5C)(C4)C2)C3)C(C)(C)C)cc1` [Example 89, 6-[3-(1,3-benzothiazol-2-ylamino)-4-methyl-6,7-dihydro-5H-pyrido[2,3-c]pyridazin-8-yl]-3-[1-[[3-[2-[2-[2-[2-[2-[3-[[(1S)-1-[(2S,4R)-4-hydroxy-2-[[(1S)-1-[4-(4-methylthiazol-5-yl)phenyl]ethyl]carbamoyl]pyrrolidine-1-carbonyl]-2,2-dimethyl-propyl]amino]-3-oxo-propoxy]ethoxy]ethoxy]ethoxy]ethyl-methyl-amino]ethoxy]-5,7-dimethyl-1-adamantyl]methyl]-5-methyl-pyrazol-4-yl]pyridine-2-carboxylic acid] came in with an IC50 in the test with MOLT-4 cells of 0.0576 µM. Besides, the DC50 at Bcl-xL was greater than 0.316 µM; on HiBiT-tagged BCL-xL it was 0.013 µM. In test [1], the GI50 is 0.435 µM.
The corresponding values for `Cc1cc(N(CCCCN(C)C(=O)CCCCCCCCCC(=O)N[C@H](C(=O)N2C[C@H](O)C[C@H]2C(=O)N[C@@H](C)c2ccc(-c3scnc3C)cc2)C(C)(C)C)c2ccc(-c3cnn(CC45CC6(C)CC(C)(C4)CC(OCCN(C)C)(C6)C5)c3C)c(C(=O)O)n2)nnc1Nc1nc2ccccc2s1` [Example 114, 6-[[6-(1,3-benzothiazol-2-ylamino)-5-methyl-pyridazin-3-yl]-[4-[[11-[[(1S)-1-[(2S,4R)-4-hydroxy-2-[[(1S)-1-[4-(4-methylthiazol-5-yl)phenyl]ethyl]carbamoyl]pyrrolidine-1-carbonyl]-2,2-dimethyl-propyl]amino]-11-oxo-undecanoyl]-methyl-amino]butyl]amino]-3-[1-[[3-[2-(dimethylamino)ethoxy]-5,7-dimethyl-1-adamantyl]methyl]-5-methyl-pyrazol-4-yl]pyridine-2-carboxylic acid] are 0.0248 µM, 0.00267 µM, 0.001 µM and 1.72 µM.
In the case of `Cc1cc(N(CCCCN(C)C(=O)CCCCCCCCCSC(C)(C)[C@H](NC(=O)C2(F)CC2)C(=O)N2C[C@H](O)C[C@H]2C(=O)NCc2ccc(-c3scnc3C)cc2)c2ccc(-c3cnn(CC45CC6(C)CC(C)(C4)CC(OCCN(C)C)(C6)C5)c3C)c(C(=O)O)n2)nnc1Nc1nc2ccccc2s1` [Example 126, 6-[[6-(1,3-benzothiazol-2-ylamino)-5-methyl-pyridazin-3-yl]-[4-[10-[(2R)-2-[(1-fluorocyclopropanecarbonyl)amino]-3-[(2S,4R)-4-hydroxy-2-[[4-(4-methylthiazol-5-yl)phenyl]methylcarbamoyl]pyrrolidin-1-yl]-1,1-dimethyl-3-oxo-propyl]sulfanyldecanoyl-methyl-amino]butyl]amino]-3-[1-[[3-[2-(dimethylamino)ethoxy]-5,7-dimethyl-1-adamantyl]methyl]-5-methyl-pyrazol-4-yl]pyridine-2-carboxylic acid], half-maximal inhibition with MOLT-4 cells (IC50) required 0.24 µM. Moreover, the DC50 is greater than 0.316 µM at Bcl-xL and greater than 1.67 µM on HiBiT-tagged BCL-xL. The GI50 in test [1] is 1.43 µM.

For orientation: IC50 means the concentration that gives 50% inhibition. Read a low IC50 as greater potency. Broadly, the GI50 is the concentration giving 50% growth inhibition.
